The values that follow come from US20230277669A1, “USES OF UROLITHINS” (Amazentis SA, priority 2022, published 2023).

One data set has as its system AOM-induced colon tumors. As to the kind of experiment: AOM-induced tumorigenesis with UA-containing diets. Type of data set: in vivo, FVB mice. From the text:
Oral UA confers anti-tumor effects in murine colorectal cancer in a T-cell dependent manner. (FIG. 1A) Schematic representation of AOM model and different UA containing diets. (FIG. 1B) Representative images of swiss-roll sections from AOM-induced colon tumors. Scale bars are 2 mm (upper row) and 300 µm (lower row), respectively. (FIG. 1C) Tumor incidence of AOM-induced tumors receiving different UA-containing diets; n=4/5/5. Data are mean ±SD, depicting one of two independent experiments. *p < 0.05 by two-sided t-test. (FIG. 1D) Average lesion size of AOM-induced tumors receiving different UA-containing diets; n=4/5/5. Data are mean ±SD, depicting one of two independent experiments. *p < 0.05 by two-sided t-test. (FIG. 1E) Relative number of CD45^+CD3^+ T cells in colons of AOM-treated mice at week 24 (n>7, pooled from two independent experiments). Data are mean ± SD, **p < 0.01 by two-sided t-test. (FIG. 1F) Organoid treatment scheme. APTK-organoids were incubated in the presence of UA or DMSO for the indicated time points, prior to flow cytometric analysis. (FIG. 1G) Quantification of lysosome formation as assessed by lysotracker MFI via flow cytometry after 24 h incubation at the presence of various UA concentrations (n=5/4/4). Depicts one out of two indepdent experiments. Data are mean ± SD, *p < 0.05; **p < 0.01 as established via two-sided t-test. (FIG. 1H) Mitotracker signal of APTK organoids incubated for 24 h at the presence of UA in vitro (n=4/4/4) and antigen presentation via MHC-I molecules (I) after 48 h of treatment (n=4/4/4). Results from one out of two independent experiments are shown. Data are mean ± SD, statistical analysis was performed via two-sided t-test, *p < 0.05; **p < 0.01, ****p < 0.0001. (FIG. 1I) Upregulation of MHC-I by UA. (FIG. 1J) Experimental setup of oral UA administration in mice with established APTK-s.c. tumors. Treatment diet was initiated eleven days after tumor injection and maintained until the end of the experiment. (FIG. 1K) Growth curve of mice subcutaneously transplanted with APTK tumors, receiving either UA-containing or control food (n=7 per group). Data are mean ± SD, ***p <0.001 by two-sided t-test. One out of two independent experiments are shown. (FIG. 1L) End point tumor weight, (FIG. 1M) CD8+ T cell infiltration in APTK-s.c. tumors assessed by flow cytometry, normalising total number of CD8^+ T cells to tumor weight (n=7 per group). Data are mean ± SD, statistical analysis was performed via Mann-Whitney test, *p < 0.05 and ***p <0.001. (FIG. 1N) Size of subcutaneous APTK tumors in Rag1^-/- mice receiving UA-containing or control food (n=7 per group). Treatment was initiated as depicted in FIG. 1J. Data are mean +-SD, depicting one out of two independent experiments. […]

For data set [1] the following is noted: commercially-available supplements containing urolithin A; cited from earlier work.
For another data set, the system named is C.elegans. The following applies: in vivo; cited from earlier work.
The mark [2] stands for this setting: high-dose UA diet (2.28 g/kg), 18 weeks.

The structures appear in SMILES notation.

On to `O=c1oc2cc(O)ccc2c2ccc(O)cc12` [Urolithin A], for which, in the data set on AOM-induced colon tumors (setting [2]), the tumor incidence result is listed as “significant decrease” and the tumor size entry is “significant decrease”. The “infiltration of CD3+ T cells” value in the data set with AOM-induced colon tumors (high-dose UA diet, colons at week 24) is given as “increased infiltration of CD3^+T cells”. The tumor load entry with AOM-induced colon tumors (low-dose UA diet (0.57 g/kg), 18 weeks) is given as “did not have an effect on tumor load”. In data set [1], the bioavailability profile result is “favourable bioavailability profile” and the safety result is given as “deemed safe”. In the data set with C.elegans, the lifespan result is “prolonged lifespan” and the mitochondrial content entry is reported as “higher mitochondrial content”.
